This test has as its target 320 non-olfactory GPCRs (Homo sapiens, UniProt P25103). The format is cell-based. Also on record: GPCRome screening signal at PTGIR / GPCRome screening signal at PTH1R / GPCRome screening signal at PTH2R / GPCRome screening signal at QRFP / GPCRome screening signal at RXFP2 / GPCRome screening signal at RXFP3 / GPCRome screening signal at RXFP4 / GPCRome screening signal at S1PR2 / GPCRome screening signal at S1PR3 / GPCRome screening signal at S1PR4 / GPCRome screening signal at S1PR5 / GPCRome screening signal at SCTR / GPCRome screening signal at SSTR2 / GPCRome screening signal at SSSTR / GPCRome screening signal at SSTR4 / GPCRome screening signal at SSTR5 / GPCRome screening signal at SUCNR1 / GPCRome screening signal at TA1 / GPCRome screening signal at TAAR2 / GPCRome screening signal at TAAR5 / GPCRome screening signal at TAAR6 / GPCRome screening signal at TAAR8 / GPCRome screening signal at TACR1 / GPCRome screening signal at TACR2 / GPCRome screening signal at TACR3 / GPCRome screening signal at TBXA2R / GPCRome screening signal at TSHR / GPCRome screening signal at UTS2R / GPCRome screening signal at VIPR2 / GPCRome screening signal at GPR68 no V2 Tail / GPCRome screening signal at GRM2 / GPCRome screening signal at GRM3: reference not given here. To be noted: receptor TACR1.

Molecules are shown by their SMILES. Values joined by “and” are separate entries in the source; they are usually repeats but may differ in a detail not shown here. Identical values can stand only once.
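For GPCRome agonism screen response in this document: fold over basal response of each receptor without drug.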

320 non-olfactory GPCRs, sequence (P25103 whole entry): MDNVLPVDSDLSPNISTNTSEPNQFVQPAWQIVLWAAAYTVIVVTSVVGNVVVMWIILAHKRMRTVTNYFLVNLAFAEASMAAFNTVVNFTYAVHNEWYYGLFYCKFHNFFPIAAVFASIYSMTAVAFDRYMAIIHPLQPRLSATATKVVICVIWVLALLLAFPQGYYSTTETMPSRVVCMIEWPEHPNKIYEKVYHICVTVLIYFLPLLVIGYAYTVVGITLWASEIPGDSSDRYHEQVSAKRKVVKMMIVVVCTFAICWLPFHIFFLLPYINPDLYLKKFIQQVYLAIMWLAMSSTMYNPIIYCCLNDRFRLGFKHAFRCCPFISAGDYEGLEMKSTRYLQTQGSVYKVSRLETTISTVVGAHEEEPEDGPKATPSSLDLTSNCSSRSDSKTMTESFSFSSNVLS

As to `CCOc1cccc2cc(C(C)NCC3(O)CCCCC3)oc12` (centres unmarked) [O4LE6], for the setting “replicate values, Fig_4g”, the “GPCRome agonism screen response” value is 1.178 and 0.9848 and 1.177 and 1.1855. On to `CCOc1ccccc1CCC(C)NCC1(O)CCCCC1.Cl` (racemic) [Fig_5f], for which the “GPCRome screening signal at TACR1” value (Fig_5f, single replicate values) was 1.29 and 1.225 and 0.9839 and 1.172.
